In patent publication US8778876B2, “Small-molecule inhibitors of Dengue and West Nile virus proteases” (The Board of Regents of the University of Texas System, priority 2011, dated 2014):
“Also recorded” adds a separate entry of the source. Like-named read-outs stand apart in the source and are kept apart here.

Legend:
physchem = details: pH 9, aqueous with cosolvent or surfactant or cyclodextrin, kinetic from dmso stock
DEN2V NS2B-NS3pro [1] = target: T1, DEN2V NS2B-NS3pro (Dengue virus type 2, UniProt Q91H74); assay: Steady-state kinetics of inhibitors of DEN2V NS2B-NS3pro (Boc-GRR-AMC substrate, Dynafit); format: biochemical, Dengue 2 virus; details: for Mechanism: HTS-identified hits
WNV NS2B-NS3pro = WNV NS2B-NS3pro (West Nile virus, UniProt P06935); assay: Steady-state kinetics of inhibitors of WNV NS2B-NS3pro; format: biochemical
DENV; WNV protease = format: biochemical, Dengue virus; West Nile virus
[2] = target: T2, Bovine pancreatic trypsin (Bos taurus, UniProt P00760); assay: biochemical; format: biochemical
T2 construct: purchased Sigma Aldrich; host or cells: bovine pancreas
T2 sequence (P00760 24-246): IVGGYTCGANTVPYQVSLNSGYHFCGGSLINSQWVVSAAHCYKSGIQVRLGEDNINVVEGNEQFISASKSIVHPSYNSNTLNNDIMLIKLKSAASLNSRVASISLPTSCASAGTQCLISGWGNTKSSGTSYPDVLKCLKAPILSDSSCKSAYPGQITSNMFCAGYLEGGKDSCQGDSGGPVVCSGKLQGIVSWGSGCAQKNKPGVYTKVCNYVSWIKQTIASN

DEN2V NS2B-NS3pro [3] = target: T1, DEN2V NS2B-NS3pro; assay: Preliminary DEN2V NS2B-NS3pro inhibition assay; format: biochemical, Dengue 2 virus; details: 100 nM protease, 100 μM Boc-GRR-AMC, 30 min at 25° C.; aprotinin at 100 μM
[4] = Ki1 (from biochemical protease inihibition experiments) Dengue 2 virus NS2B-NS3
[5] = Ki1 (from biochemical protease inihibition experiments) West Nile virus NS2B-NS
[6] = Table 1, DEN2V NS2B-NS3pro, read-out: Ki1
[7] = Table 1, DEN2V NS2B-NS3pro, read-out: Ki2
[8] = Table 2, WNV NS2B-NS3pro, read-out: Ki1
[9] = Table 2, WNV NS2B-NS3pro, read-out: Ki2

T1 sequence (Q91H74 entry or part of it, added parts left off): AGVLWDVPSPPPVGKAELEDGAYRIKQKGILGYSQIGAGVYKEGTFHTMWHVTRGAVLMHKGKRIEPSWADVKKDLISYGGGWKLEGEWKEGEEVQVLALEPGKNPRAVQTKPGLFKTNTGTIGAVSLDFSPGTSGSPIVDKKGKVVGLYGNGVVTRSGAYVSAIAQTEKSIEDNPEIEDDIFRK
T1 sequence (Q91H74 entry or part of it partner, added parts left off): as the sequence (Q91H74 entry or part of it, added parts left off) above
Sequence of WNV NS2B-NS3pro (P06935 1502-1679 limits assumed): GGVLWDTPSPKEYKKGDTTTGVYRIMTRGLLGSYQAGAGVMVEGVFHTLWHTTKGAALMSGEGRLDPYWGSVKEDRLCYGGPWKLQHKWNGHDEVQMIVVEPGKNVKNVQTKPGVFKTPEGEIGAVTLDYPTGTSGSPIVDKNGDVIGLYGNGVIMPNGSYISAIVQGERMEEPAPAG
Sequence of WNV NS2B-NS3pro (P06935 1424-1463 partner limits assumed): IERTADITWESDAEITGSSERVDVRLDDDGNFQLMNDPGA

In the case of `Nc1cccc2c1C(=O)c1ccccc1C2=O` [Compound 6A25], the solubility (physchem) is reported as less than 10 µM.

Compound `Cc1ccc2c(c1)C(=O)c1ccccc1C2=O` [Compound 6A28] has a solubility (physchem) of less than 10 µM.

`O=c1ccc2[n+]([O-])c3ccc(O)cc3oc-2c1` [Compound 9A3] gave a Ki (DEN2V NS2B-NS3pro [1]; [4]) of 82 µM and a Ki (WNV NS2B-NS3pro; [5]) of 72 µM.

With `O=[N+]([O-])c1cc(/N=N/c2ccc(O)c3cc(O)ccc23)ccc1O` [Compound 297] the Ki (DEN2V NS2B-NS3pro [1]; Denpro Ki2) was 85 µM, the Ki (WNV NS2B-NS3pro; WNpro Ki2) was 61 µM and the “Protease inhibited in Knock-down” value (DENV; WNV protease) was “DENV; WNV”.

`Oc1ccc2c(/N=N/c3ccc4c(c3)OCO4)ccc(O)c2c1` [Compound 296] showed a Ki (DEN2V NS2B-NS3pro [1]; Denpro Ki1) of 215 µM, a Ki (DEN2V NS2B-NS3pro [1]; Denpro Ki2) of 62 µM and a Ki (WNV NS2B-NS3pro; WNpro Ki2) of 116 µM. The “Protease inhibited in Knock-down” value (DENV; WNV protease) was “DENV; WNV”.

With `Oc1cc2ccc(/N=N/c3ccc4c(c3)OCO4)cc2cc1O` [Compound 290] the Ki (DEN2V NS2B-NS3pro [1]; Denpro Ki2) was less than 8.5 µM, the Ki (WNV NS2B-NS3pro; WNpro Ki2) was less than 6 µM and the “Protease inhibited in Knock-down” value (DENV; WNV protease) was “DENV; WNV”.

With `CCN(CC)c1ccc2nc3c4ccccc4c(=O)cc-3oc2c1` [Compound 9A6] the Ki (DEN2V NS2B-NS3pro [1]; [4]) was 53 µM and the Ki (WNV NS2B-NS3pro; [5]) was 47 µM.

Compound `O=C1c2cccc(O)c2C(=O)c2cccc(O)c21` [Compound 6A30] has a solubility (physchem) of less than 10 µM.

For `CN(C)c1ccc2nc3ccc(=O)cc-3sc2c1` [Compound 9A4], the Ki (DEN2V NS2B-NS3pro [1]; [4]) was 359 µM and the Ki (WNV NS2B-NS3pro; [5]) was 431 µM.

`Nc1ccc2c(c1)C(=O)c1ccccc1C2=O` [Compound 6A27] gave a solubility (physchem) of less than 10 µM.

`O=[N+]([O-])c1cc(/N=N/c2ccc3cc(O)c(O)cc3c2)ccc1O` [Compound 293] showed a Ki (DEN2V NS2B-NS3pro [1]; Denpro Ki1) of 432 µM, a Ki (DEN2V NS2B-NS3pro [1]; Denpro Ki2) of 29 µM and a Ki (WNV NS2B-NS3pro; WNpro Ki2) of 20 µM. For the same compound, the “Protease inhibited in Knock-down” value (DENV; WNV protease) was “DENV”.

For `Nc1ccc(O)c2ccccc12` [Compound 6A51], the solubility (physchem) was greater than 10 µM.

Work on `O=[N+]([O-])c1ccc(/N=N/c2ccc(O)c3cc(O)ccc23)c([N+](=O)[O-])c1` [Compound 298] yielded a Ki (DEN2V NS2B-NS3pro [1]; Denpro Ki1) of 40 µM, a Ki (DEN2V NS2B-NS3pro [1]; Denpro Ki2) of 4 µM and a Ki (WNV NS2B-NS3pro; WNpro Ki1) of 4 µM. For the same compound, the Ki (WNV NS2B-NS3pro; WNpro Ki2) was 2 µM and the “Protease inhibited in Knock-down” value (DENV; WNV protease) was “DENV; WNV”.

In the case of `Nc1ccc(N)c2c1C(=O)c1c(N)ccc(N)c1C2=O` [Compound 6A42], the “Mechanism (trypsin inhibition)” value [2] is reported as “mixed noncompetitive trypsin inhibitors; also recorded: inhibited both the DEN2V NS2B-NS3 protease and trypsin”, the Ki ([2]; Ki1 trypsin) is reported as 60 ± 13 µM and the Ki ([2]; Ki2 trypsin) is reported as 167 ± 20 µM. For the same compound, the “Inhibition of DEN2V NS2B-NS3pro in the preliminary inhibition assay” value (“Inhibition of DEN2V NS2B-NS3pro” for short) (DEN2V NS2B-NS3pro [3]) was “significant inhibition”.

With `O=[N+]([O-])c1ccc(N=Nc2ccc(O)c3ccccc23)c([N+](=O)[O-])c1` [Compound 6A49] the Ki (WNV NS2B-NS3pro; [5]) was 34 µM, the Ki (WNV NS2B-NS3pro; WNpro Ki1) was 34 µM and the “Mechanism (trypsin inhibition)” value [2] was “did not inhibit trypsin; also recorded: No inhibition”. The “Inhibition of DEN2V NS2B-NS3pro” value (DEN2V NS2B-NS3pro [3]) was “significant inhibition”, the “Protease inhibited in Knock-down” value (DENV; WNV protease) was “DENV; WNV” and the solubility (physchem) was greater than 10 µM.

For `O=C1c2c(O)cccc2Cc2cccc(O)c21` [Compound 6A45], the Ki (WNV NS2B-NS3pro; [5]) was 2 µM, the “Mechanism (trypsin inhibition)” value [2] was “competitive trypsin inhibitors; also recorded: inhibited both the DEN2V NS2B-NS3 protease and trypsin” and the Ki ([2]; Ki1 trypsin) was 0.6 ± 0.07 µM. The “Inhibition of DEN2V NS2B-NS3pro” value (DEN2V NS2B-NS3pro [3]) was “significant inhibition” and the solubility (physchem) was greater than 10 µM.

For `CC[C@H](C)[C@H]1O[C@]2(CC[C@@H]1C)C[C@@H]1C[C@@H](C/C=C(\C)[C@@H](O[C@H]3C[C@H](OC)[C@@H](O[C@H]4C[C@H](OC)[C@@H](O)[C@H](C)O4)[C@H](C)O3)[C@@H](C)/C=C/C=C3\CO[C@@H]4[C@H](O)C(C)=C[C@@H](C(=O)O1)[C@]34O)O2` [MS21, Ivermectin, reference compound], the Mechanism (DEN2V NS2B-NS3pro [1]; Table 1, DEN2V NS2B-NS3pro) was “Mixed”, the Ki (DEN2V NS2B-NS3pro [1]; [6]) was 79 ± 21 µM and the Ki (DEN2V NS2B-NS3pro [1]; [7]) was 35 ± 4 µM. For the same compound, the Mechanism (WNV NS2B-NS3pro; Table 2, WNV NS2B-NS3pro) was “Mixed”, the Ki (WNV NS2B-NS3pro; [8]) was 55 ± 18 µM and the Ki (WNV NS2B-NS3pro; [9]) was 16 ± 4 µM.

Work on `COc1ccc(N)c2c1C(=O)c1ccccc1C2=O` [Compound 6A46] yielded a solubility (physchem) greater than 10 µM.

With `O=Cc1ccc2c(c1)C(=O)c1ccccc1C2=O` [Compound 6A50] the solubility (physchem) was greater than 10 µM.

With `O=[N+]([O-])c1ccc(/N=N/c2ccc3cc(O)c(O)cc3c2)c(O)c1` [Compound 300] the Ki (DEN2V NS2B-NS3pro [1]; Denpro Ki1) was 81 µM, the Ki (DEN2V NS2B-NS3pro [1]; Denpro Ki2) was 5 µM and the Ki (WNV NS2B-NS3pro; WNpro Ki1) was 3 µM. For the same compound, the Ki (WNV NS2B-NS3pro; WNpro Ki2) was 2 µM and the “Protease inhibited in Knock-down” value (DENV; WNV protease) was “DENV; WNV”.

In the case of `Cc1cc(C(C)(C)CC(C)(C)C)ccc1OCCOCC[N+](C)(C)Cc1ccccc1.[Cl-]` [MS22, Methylbenzethonium chloride, reference compound], the Mechanism (DEN2V NS2B-NS3pro [1]; Table 1, DEN2V NS2B-NS3pro) is reported as “Mixed”, the Ki (DEN2V NS2B-NS3pro [1]; [6]) is reported as 322 ± 81 µM and the Ki (DEN2V NS2B-NS3pro [1]; [7]) is reported as 160 ± 39 µM. For the same compound, the Mechanism (WNV NS2B-NS3pro; Table 2, WNV NS2B-NS3pro) was “Mixed”, the Ki (WNV NS2B-NS3pro; [8]) was 141 ± 20 µM and the Ki (WNV NS2B-NS3pro; [9]) was 307 ± 80 µM.
